This note sets out measurements from paper PMC12015759, “A humanized Gs-coupled DREADD for circuit and behavior modulation” (Frontiers in Cellular Neuroscience, 2025).

The test system of one assay is PD mice. The assay is described as follows: Rotarod test in 6-OHDA PD mice with bilateral AAV8R12-G88P7-hM3Ds-2A-EYFP. Type of assay: in vivo, mouse. The note with it: CNO treatment. The method, then: Animals were anesthetized via intraperitoneal injection of pentobarbital sodium (Sigma) and placed into a stereotactic frame (RWD Instruments). An incision was made to expose the skull and locate the site above the SNr (from bregma: AP –3.4 mm, ML 1.3 mm, DV –4.8 mm). A hole in the skull was drilled above the SNr using an electrodrill (RWD Instruments). The AAV8R12-G88P7-hM3Ds-2A-EYFP vector (200 nL volume) was injected using a 10 μL 33-Gauge Hamilton syringe at a rate of 20 nL/min. The syringe was withdrawn 10 min after finishing injection. Behavioral experiments are performed at least 3 weeks after virus injection.
A PD mouse model was generated using 6-OHDA. Desipramine (Sigma) was administrated (25 mg/kg) via intraperitoneal injection 30 min before a 6-OHDA injection. The stereotactic injection procedure was identical to the AAV injection described above. A volume of 800 nL 6-OHDA (5 mg/mL) was injected into each side of striatum (from bregma: AP 0.5 mm, ML ±1.5 mm, DV –3.2 mm) at a rate of 100 nL/min. One week after 6-OHDA lesions were generated, AAV injections were administered, and behavioral tests were conducted 3 weeks after AAV injections.
After 3 days of habituation to the environment and operator, the mice were placed on a suspended rod apparatus (Xinruan) and trained at speeds of 10, 20, 30 and 40 rpm/min for 2 days. […]
Background: Falling from the rotarod earlier than controls is read as motor impairment.

Assay [1] has as its target T1, hM3Ds (Homo sapiens, UniProt P20309, A178S/A239G/A490L/DEL258-409/DEL413-482/I254V/INS485[…]/K179L/K183A/K256R/K487Q/L174F/L483Q/R172S/R177Q/R180L/T175R/T182R/Y149C/Y255F).
T1 sequence (P20309 with tags, fused parts or gaps Y149C/R172S/L174F/T175R/R177Q/A178S/K179L/R180L/T182R/K183A/A239G/I254V/Y255F/K256R/DEL258-409/DEL413-482/L483Q/INS485[…]/K487Q/A490L): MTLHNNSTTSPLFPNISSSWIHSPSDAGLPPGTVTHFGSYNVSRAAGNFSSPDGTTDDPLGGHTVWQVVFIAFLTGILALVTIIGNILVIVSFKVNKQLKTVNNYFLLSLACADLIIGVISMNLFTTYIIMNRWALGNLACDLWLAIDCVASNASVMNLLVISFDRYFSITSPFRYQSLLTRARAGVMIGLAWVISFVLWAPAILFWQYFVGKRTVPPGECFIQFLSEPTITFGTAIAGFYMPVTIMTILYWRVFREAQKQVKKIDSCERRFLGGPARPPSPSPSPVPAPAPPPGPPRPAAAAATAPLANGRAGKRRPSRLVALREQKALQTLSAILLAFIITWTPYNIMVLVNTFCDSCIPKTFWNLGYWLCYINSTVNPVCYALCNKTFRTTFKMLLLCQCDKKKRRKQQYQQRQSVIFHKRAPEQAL
The method, then:
(§1) As for the cAMP assay, HEK293T cells (ATCC) were seeded in 6-well plate with DMEM containing 10% fetal bovine serum. Upon reaching ~80% confluency, cells were transfected with DREADDs plasmids (30 ng), pCRE-Luc (GeneBank accession: AF053461.1, 600 ng) and pRL-SV40 (GeneBank accession: AF025845.2, 150 ng). The following day, cells were redistributed from 6-well plates to white opaque 96-well plates pre-coated with poly-L-lysine (Solarbio).
(§2) The plates were then placed back in the cell incubator for 6 h. The cAMP level was detected using a Dual Glo Luciferase Reporter Gene Assay Kit (YEASEN) following the manufacturer’s protocol. The data of each well was presented as the ratio of firefly luciferase luminescence to renilla luciferase luminescence.
(§3) We next examined whether the chemogenetic receptor ligand, CNO, could stimulate hM3-ti23-Ds and hM3Ds and induce up-regulation of cAMP level. We co-transfected HEK293T cells with engineered receptors and the reporter vector, pCRE-Luc, which contains a cAMP response element-driven firefly luciferase (Luc) ([Bokar et al., 1988]); pRL-SV40 encoding renilla luciferase was simultaneously transfected as a transfection efficiency control.

A further assay has as its target T2, hM3-ti23-Ds (Homo sapiens, UniProt P20309, A178S/A239G/A490L/D442R/DEL262-438/DEL444-462/DEL467-485/E259S/I254V/INS257[…]/K179L/K183A/K256R/K465M/K487H/L174F/L463M/R172S/R177Q/R180M/T175R/T182R/T258A/Y149C).
T2 sequence (P20309 with tags, fused parts or gaps Y149C/R172S/L174F/T175R/R177Q/A178S/K179L/R180M/T182R/K183A/A239G/I254V/K256R/INS257[…]/T258A/E259S/DEL262-438/D442R/DEL444-462/L463M/K465M/DEL467-485/K487H/A490L): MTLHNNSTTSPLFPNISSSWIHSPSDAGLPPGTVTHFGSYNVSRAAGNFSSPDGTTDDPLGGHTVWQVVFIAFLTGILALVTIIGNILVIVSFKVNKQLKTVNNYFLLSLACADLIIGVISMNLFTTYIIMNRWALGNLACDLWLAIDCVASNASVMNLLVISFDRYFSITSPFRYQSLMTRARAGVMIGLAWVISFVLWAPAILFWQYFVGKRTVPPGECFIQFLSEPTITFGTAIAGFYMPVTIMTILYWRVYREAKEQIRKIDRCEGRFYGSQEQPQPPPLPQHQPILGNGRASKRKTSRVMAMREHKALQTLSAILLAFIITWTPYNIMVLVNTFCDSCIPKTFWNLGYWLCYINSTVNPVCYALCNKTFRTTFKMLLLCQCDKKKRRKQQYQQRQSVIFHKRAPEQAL
The method, then: as §1, §2, §3

For assay [2], the target named is T1, hM3Ds. Put plainly: Ca2+ imaging (GCaMP6s) in hM3Ds-transfected HEK293T cells. The arrangement: hM3Ds was subcloned into pAAV-CMV-EYFP to replace EYFP; expressed in transfected cells; host or cells: HEK293T. The note with it: CNO 10 μM, 10 min. Type of assay: cell-based. How it is done: As for the Ca^2+ imaging assay, HEK293T cells (ATCC) were seeded in 24-well plate with DMEM containing 10% fetal bovine serum. Upon reaching ~80% confluency, cells were cotransfected with pAAV-CAG-GCaMP6s (0.1 μg), and pAAV-CMV-hM3Ds or pAAV-CMV-hM3Dq (0.1 μg).
48 h after transfection, the medium in each well was replaced with 400 μL CNO (10 μM) solution, or with 400 μL vehicle (medium only). […] Cell fluorescence were imaged under microscopy and quantified using ImageJ.

As usually defined, the EC50 is the concentration giving half of the maximal effect.

With `C[N+]1([O-])CCN(C2=Nc3cc(Cl)ccc3Nc3ccccc32)CC1` [CNO, clozapine N-oxide], the “latency to fall (rotarod)” value with PD mice was “partial recovery of motor skills”. The “fold change in luciferase activity” value on hM3Ds [1] (CNO at 10 μM, hM3Ds, compared to rM3Ds) was “comparable fold change”; at hM3-ti23-Ds (CNO at 10 μM, compared to rM3Ds and hM3Ds), “lower fold change”. Also, the EC50 on hM3Ds [1] (CNO on hM3Ds, HEK293T, 6 h, firefly/renilla luciferase ratio) is 1.26 ± 0.2 nM. For the same compound, the cAMP response result was “dose-dependently increased the cAMP response” at hM3Ds [1] (hM3Ds, HEK293T) and “dose-dependently increased the cAMP response” at hM3-ti23-Ds (HEK293T). For the same compound, on hM3Ds [2], the calcium rise entry is recorded as “did not induce detectable levels of calcium rise”.
